Measured values published in patent US5254541A, “(Quinolin-2-ylmethoxy)indole/cyclodextrin complex” (Merck Frosst Canada, Inc., priority 1991, dated 1993).
Counter-ions that a name gives are not always drawn.

Tests used:
[1] = type: physicochemical
Description: Phase solubility experiments were conducted by adding excess amounts (20 mg/mL) of L-686,708, sodium salt, to aqueous solutions (pH=9) containing various amounts of cyclodextrin and mixing on a rotating mixer. After equilibration at room temperature for at least 48 hrs, aliquots of the mixture were centrifuged to separate the undissolved sodium salt. The supernatant was diluted and dissolved L-686,708 concentration measured by HPLC. […] This stability constant is a tentative measure of complex formation.

[2] = oral bioavailability, general statement; details: in vivo
[3] = solid state characteristics of the crystalline sodium salt; type: physicochemical; details: non-hygroscopicity, physical stability, etc.
aqueous solubility = type: physicochemical; details: water, crystalline sodium salt

- type of solubility curve (Higuchi) [1]: An -type
- oral bioavailability (in words) [2]: low oral bioavailability
- solubility (aqueous solubility): 5 to 30 µg/mL
Compound: CC(C)(C)Sc1c(CC(C)(C)C(=O)O)n(Cc2ccc(Cl)cc2)c2ccc(OCc3ccc4ccccc4n3)cc12 [L-686,708 sodium salt, Crystalline 3-[N-(p-chlorobenzyl)-3-(t-butylthio)-5-(quinolin-2-ylmethoxy)indol-2-yl]-2.2-dimethylpropanoic acid, sodium salt]
- solid state characteristics (in words) [3]: good solid state characteristics, such as non-hygroscopicity, physical stability
